Results on 64 compounds are retold here after patent US9200008B2 (ASKA PHARMACEUTICAL CO., LTD., priority 2010, dated 2015).

For this assay, the system named is Human prostate cancer cell lines (PC-3 cells). In words: Measurement of cell death-inducing activity (Test Example 1). Format: cell-based. The conditions noted are these: PC-3, 48 h, 48 hours after addition, tested at 10, 1, 0.1, 0.025 and 0.00625 μmol/L, qualitative evaluation of 10 fields, read-out: Concentration showing the cell death-inducing activity (cell death-inducing rate not less than 40%). How it is done:
The cell death-inducing activity of the compound represented by the formula (1) or the salt thereof was measured as follows.
Human prostate cancer cell lines (PC-3 cells) were seeded to 6-well plates at 1×10^5 cells/2 mL/well, and cultured in the presence of 5% CO2 at 37° C. for 48 hours. Thereafter, each compound was added thereto so as to provide 10, 1, 0.1, 0.025 and 0.00625 μmol/L. As a control, DMSO was added. After the addition, the cells were continuously cultured for 48 hours. […] When the cell death-inducing rate was not less than 40%, the compound was judged to have the cell death-inducing activity.
As to `CCn1cnc2cc(COC(=O)Nc3sc(-c4ccc(Cl)cc4C)nc3C)ccc21` [Example 9-64], the minimal effective concentration was 0.00625 µM.
Take `CCCn1cnc2cc(COC(=O)Nc3sc(-c4ccccc4OC)nc3C)ccc21` [Example 9-66]: the minimal effective concentration was determined as 1 µM.
Next, `CCCn1cnc2cc(COC(=O)Nc3sc(-c4ccc(Cl)cc4OC)nc3C)ccc21` [Example 9-67]: 0.025 µM.
Next, `CCCn1cnc2cc(COC(=O)Nc3sc(-c4ccc(C)cc4OC)nc3C)ccc21` [Example 9-68]: 0.1 µM; `CCCn1cnc2cc(COC(=O)Nc3sc(-c4ccc(C)cc4C)nc3C)ccc21` [Example 9-69]: 1 µM; `COc1cc(F)ccc1-c1nc(C)c(NC(=O)OCc2ccc3c(c2)ncn3C(C)C)s1` [Example 9-70]: 0.1 µM.
As for `COc1cc(Cl)ccc1-c1nc(C)c(NC(=O)OCc2ccc3c(c2)ncn3C(C)C)s1` [Example 9-71], the minimal effective concentration is 0.025 µM.
The value for `COc1ccc(-c2nc(C)c(NC(=O)OCc3ccc4c(c3)ncn4C(C)C)s2)c(OC)c1` [Example 9-72] was 1 µM.
As to `COc1ccccc1-c1nc(C)c(NC(=O)OCc2ccc3c(c2)nc(C)n3C)s1` [Example 9-74], the minimal effective concentration worked out at 1 µM.
The value for `COc1cc(F)ccc1-c1nc(C)c(NC(=O)OCc2ccc3c(c2)nc(C)n3C)s1` [Example 9-75] was 0.1 µM.
Turning to `COc1cc(Cl)ccc1-c1nc(C)c(NC(=O)OCc2ccc3c(c2)nc(C)n3C)s1` [Example 9-76], the minimal effective concentration came to 0.025 µM.
Next, `COc1cc(C)ccc1-c1nc(C)c(NC(=O)OCc2ccc3c(c2)nc(C)n3C)s1` [Example 9-77]: 0.025 µM; `Cc1ccc(-c2nc(C)c(NC(=O)OCc3ccc4c(c3)nc(C)n4C)s2)c(C)c1` [Example 9-78]: 0.025 µM; `Cc1nc(-c2ccc(F)cc2Cl)sc1NC(=O)OCc1ccc2c(c1)nc(C)n2C` [Example 9-79]: 0.1 µM.
Take `Cc1cc(F)ccc1-c1nc(C)c(NC(=O)OCc2ccc3c(c2)nc(C)n3C)s1` [Example 9-80]: the minimal effective concentration came to 0.1 µM.
Next, `Cc1cc(Cl)ccc1-c1nc(C)c(NC(=O)OCc2ccc3c(c2)nc(C)n3C)s1` [Example 9-81]: 0.025 µM.
Next, `CCc1nc2cc(COC(=O)Nc3sc(-c4ccc(Cl)cc4OC)nc3C)ccc2n1C` [Example 9-82]: 0.025 µM; `CCc1nc2cc(COC(=O)Nc3sc(-c4ccc(C)cc4C)nc3C)ccc2n1C` [Example 9-83]: 0.1 µM.
Next, `CCc1ccccc1-c1nc(C)c(NC(=O)OCc2ccc3c(c2)nc(C)n3CC)s1` [Example 9-84]: 1 µM.
Take `CCn1c(C)nc2cc(COC(=O)Nc3sc(-c4ccccc4OC)nc3C)ccc21` [Example 9-85]: the minimal effective concentration was determined as 1 µM.
Take `CCn1c(C)nc2cc(COC(=O)Nc3sc(-c4ccc(Cl)cc4OC)nc3C)ccc21` [Example 9-86]: the minimal effective concentration stood at 0.025 µM.
The value for `CCn1c(C)nc2cc(COC(=O)Nc3sc(-c4ccc(C)cc4OC)nc3C)ccc21` [Example 9-87] was 0.025 µM.
The value for `CCn1c(C)nc2cc(COC(=O)Nc3sc(-c4ccc(C)cc4C)nc3C)ccc21` [Example 9-88] was 0.1 µM; that for `CCc1ccccc1-c1nc(C)c(NC(=O)OCc2ccc3c(c2)nc2n3CCOC2)s1` [Example 9-90] was 0.1 µM.
On to `COc1ccccc1-c1nc(C)c(NC(=O)OCc2ccc3c(c2)nc2n3CCOC2)s1` [Example 9-91], for which the minimal effective concentration came to 0.025 µM.
Next, `COc1cc(F)ccc1-c1nc(C)c(NC(=O)OCc2ccc3c(c2)nc2n3CCOC2)s1` [Example 9-92]: 0.00625 µM.
Next, `COc1cc(Cl)ccc1-c1nc(C)c(NC(=O)OCc2ccc3c(c2)nc2n3CCOC2)s1` [Example 9-93]: 0.00625 µM.
Next, `COc1ccc(-c2nc(C)c(NC(=O)OCc3ccc4c(c3)nc3n4CCOC3)s2)c(OC)c1` [Example 9-95]: 0.025 µM; `Cc1ccc(-c2nc(C)c(NC(=O)OCc3ccc4c(c3)nc3n4CCOC3)s2)c(C)c1` [Example 9-96]: 0.00625 µM.
Turning to `Cc1cc(F)ccc1-c1nc(C)c(NC(=O)OCc2ccc3c(c2)nc2n3CCOC2)s1` [Example 9-97], the minimal effective concentration is 0.025 µM.
Next, `Cc1cc(Cl)ccc1-c1nc(C)c(NC(=O)OCc2ccc3c(c2)nc2n3CCOC2)s1` [Example 9-98]: 0.00625 µM; `Cc1ccccc1-c1nc(C)c(NC(=O)OCc2ccc3c(c2)nc2n3CCC2)s1` [Example 9-99]: 1 µM; `CCc1ccccc1-c1nc(C)c(NC(=O)OCc2ccc3c(c2)nc2n3CCC2)s1` [Example 9-100]: 0.1 µM.
The value for `COc1ccccc1-c1nc(C)c(NC(=O)OCc2ccc3c(c2)nc2n3CCC2)s1` [Example 9-101] was 0.1 µM; that for `CCc1cc(F)ccc1-c1nc(C)c(NC(=O)OCc2ccc3c(c2)nc2n3CCC2)s1` [Example 9-102] was 0.025 µM; that for `COc1cc(Cl)ccc1-c1nc(C)c(NC(=O)OCc2ccc3c(c2)nc2n3CCC2)s1` [Example 9-103] was 0.00625 µM.
Turning to `COc1cc(C)ccc1-c1nc(C)c(NC(=O)OCc2ccc3c(c2)nc2n3CCC2)s1` [Example 9-104], the minimal effective concentration was 0.1 µM.
Next, `Cc1cc(F)ccc1-c1nc(C)c(NC(=O)OCc2ccc3c(c2)nc2n3CCC2)s1` [Example 9-106]: 0.025 µM.
Next, `Cc1cc(Cl)ccc1-c1nc(C)c(NC(=O)OCc2ccc3c(c2)nc2n3CCC2)s1` [Example 9-107]: 0.025 µM.
The value for `Cc1ccc(-c2nc(C)c(NC(=O)OCc3ccc4c(c3)nc3n4CCC3)s2)c(C)c1` [Example 9-108] was 0.025 µM; that for `CCc1ccccc1-c1nc(C)c(NC(=O)OCc2ccc3c(c2)nc2n3CCCC2)s1` [Example 9-109] was 1 µM; that for `COc1ccccc1-c1nc(C)c(NC(=O)OCc2ccc3c(c2)nc2n3CCCC2)s1` [Example 9-110] was 1 µM.
Turning to `COc1cc(F)ccc1-c1nc(C)c(NC(=O)OCc2ccc3c(c2)nc2n3CCCC2)s1` [Example 9-111], the minimal effective concentration is 0.1 µM.
Next, `COc1cc(C)ccc1-c1nc(C)c(NC(=O)OCc2ccc3c(c2)nc2n3CCCC2)s1` [Example 9-112]: 0.1 µM; `Cc1ccc(-c2nc(C)c(NC(=O)OCc3ccc4c(c3)nc3n4CCCC3)s2)c(C)c1` [Example 9-113]: 0.025 µM.
The value for `Cc1cc(Cl)ccc1-c1nc(C)c(NC(=O)OCc2ccc3c(c2)nc2n3CCCC2)s1` [Example 9-115] was 0.1 µM; that for `COc1cc(F)ccc1-c1nc(C)c(NC(=O)OCc2ccc3c(c2)nc2n3C(C)CCC2)s1` (stereo not shown) [Example 9-116] was 10 µM; that for `Cc1ccc(-c2nc(C)c(NC(=O)OCc3ccc4c(c3)nc3n4C(C)CCC3)s2)c(C)c1` (stereo not shown) [Example 9-118] was 10 µM.
Next, `Cc1cc(Cl)ccc1-c1nc(C)c(NC(=O)OCc2ccc3c(c2)nc2n3C(C)CCC2)s1` (stereo not shown) [Example 9-119]: 10 µM; `COc1cc(Cl)ccc1-c1nc(C)c(NC(=O)OCc2ccc3c(c2)nc2n3CCC(C)C2)s1` (stereo not shown) [Example 9-120]: 0.1 µM.
Regarding `COc1cc(C)ccc1-c1nc(C)c(NC(=O)OCc2ccc3c(c2)nc2n3CCC(C)C2)s1` (stereo not shown) [Example 9-121], the minimal effective concentration is 1 µM.
Next, `Cc1ccc(-c2nc(C)c(NC(=O)OCc3ccc4c(c3)nc3n4CCC(C)C3)s2)c(C)c1` (stereo not shown) [Example 9-122]: 1 µM.
Next, `Cc1ccc(-c2nc(C)c(NC(=O)OCc3ccc4c(c3)nc3n4CCCCC3)s2)c(C)c1` [Example 9-124]: 10 µM; `CCc1ccccc1-c1nc(C)c(NC(=O)OCc2ccc3c(cnn3C)c2)s1` [Example 9-125]: 1 µM; `COc1ccccc1-c1nc(C)c(NC(=O)OCc2ccc3c(cnn3C)c2)s1` [Example 9-126]: 0.1 µM.
Next, `COc1cc(F)ccc1-c1nc(C)c(NC(=O)OCc2ccc3c(cnn3C)c2)s1` [Example 9-127]: 0.1 µM; `COc1cc(Cl)ccc1-c1nc(C)c(NC(=O)OCc2ccc3c(cnn3C)c2)s1` [Example 9-128]: 0.00625 µM.
In the case of `COc1cc(C)ccc1-c1nc(C)c(NC(=O)OCc2ccc3c(cnn3C)c2)s1` [Example 9-129], the minimal effective concentration was determined as 0.00625 µM.
The value for `Cc1ccc(-c2nc(C)c(NC(=O)OCc3ccc4c(cnn4C)c3)s2)c(C)c1` [Example 9-130] was 0.025 µM; that for `Cc1nc(-c2ccc(F)cc2Cl)sc1NC(=O)OCc1ccc2c(cnn2C)c1` [Example 9-131] was 0.1 µM.
Consider `CCc1ccccc1-c1nc(C)c(NC(=O)OCc2ccc3c(cnn3CC)c2)s1` [Example 9-133], for which the minimal effective concentration was 0.1 µM.
Next, `CCn1ncc2cc(COC(=O)Nc3sc(-c4ccccc4OC)nc3C)ccc21` [Example 9-134]: 0.025 µM; `CCn1ncc2cc(COC(=O)Nc3sc(-c4ccc(F)cc4OC)nc3C)ccc21` [Example 9-135]: 0.025 µM.
As to `CCn1ncc2cc(COC(=O)Nc3sc(-c4ccc(Cl)cc4OC)nc3C)ccc21` [Example 9-136], the minimal effective concentration came out at 0.00625 µM.
